Laboratory results from ChEMBL document CHEMBL4418265, “Piperidinylpyrazolopyridine derivatives” (2016).

Test system: Cynomolgus monkey
Assay: Increase in HDL-C level in cynomolgus monkey plasma at 10 mg/kg, po administered as single dose measured after 1 or 7 days by HPLC method
Type: functional, Macaca fascicularis

O=C1CC(O)(C(F)(F)F)c2c(C3CCN(c4ccc(OC(F)F)cc4)CC3)n[nH]c2N1 (single isomer, unassigned)
Activity: 644%
